We go through six molecules from ChEMBL document CHEMBL1142306, “Biflavonoids isolated from Selaginella tamariscina regulate the expression of matrix metalloproteinase in human skin fibroblasts” (Bioorg Med Chem, 2008).

Experiment [1] concerns Fibroblast. Kind of experiment: Inhibition of UVB irradiation-induced MMP1 production in human dermal fibroblasts at 2.5 uM after 48 hrs. Format: functional, cell-based.
Experiment [2] concerns Fibroblast. Kind of experiment: Growth inhibition of UVB irradiated human dermal fibroblasts at 5 uM. Type of experiment: functional, cell-based.
The test system of experiment [3] is Fibroblast. The experiment in a line: Inhibition of UVB irradiation-induced MMP1 production in human dermal fibroblasts at 1.25 uM after 48 hrs. Format: functional, cell-based.
Experiment [4] concerns the target 72 kDa type IV collagenase (Homo sapiens) (UniProt P08253). Kind of experiment: Inhibition of MMP2 in UVB irradiated human dermal fibroblasts at <5 uM by zymography.
For experiment [5], the system named is Fibroblast. The experiment in a line: Decrease in cell viability of UVB irradiated human dermal fibroblasts at 5 uM. Type of experiment: functional.
In experiment [6] the test system is Fibroblast. Kind of experiment: Inhibition of UVB irradiation-induced MMP1 production in human dermal fibroblasts at 5 uM after 48 hrs. Format: functional, cell-based.
Experiment [7] deals with Fibroblast. Kind of experiment: Decrease in protein content in UVB irradiated human dermal fibroblasts at 5 uM relative to control. Type of experiment: functional. Further details: scale not given: the % may be the effect or the level left.
The subject of experiment [8] is Fibroblast. Kind of experiment: Inhibition of UVB irradiation-induced MMP1 production in human dermal fibroblasts after 48 hrs. Format: functional, cell-based. To be noted: for IC50: light or radiation study.
The test system of experiment [9] is Fibroblast. Kind of experiment: Inhibition of UVB irradiation-induced MMP1 production in human dermal fibroblasts at 10 uM after 48 hrs. Format: functional, cell-based.
Experiment [10] deals with Fibroblast. Kind of experiment: Inhibition of UVB irradiation-induced MMP1 production in human dermal fibroblasts at 20 uM after 48 hrs. Format: functional, cell-based.
The test system of experiment [11] is Fibroblast. Kind of experiment: Decrease in cell viability of UVB irradiated human dermal fibroblasts at 20 uM. Type of experiment: functional.
In experiment [12] the test system is Fibroblast. The experiment in a line: Growth inhibition of UVB irradiated human dermal fibroblasts at 20 uM. Format: functional, cell-based.
Experiment [13] deals with Fibroblast. The experiment in a line: Decrease in protein content in UVB irradiated human dermal fibroblasts at 20 uM relative to control. Type of experiment: functional. Details: scale not given: the % may be the effect or the level left.

Calls of active or inactive are those of the source. No cut-off for these calls is given here.

Sequence of 72 kDa type IV collagenase (Homo sapiens) (P08253 110-660 limits assumed): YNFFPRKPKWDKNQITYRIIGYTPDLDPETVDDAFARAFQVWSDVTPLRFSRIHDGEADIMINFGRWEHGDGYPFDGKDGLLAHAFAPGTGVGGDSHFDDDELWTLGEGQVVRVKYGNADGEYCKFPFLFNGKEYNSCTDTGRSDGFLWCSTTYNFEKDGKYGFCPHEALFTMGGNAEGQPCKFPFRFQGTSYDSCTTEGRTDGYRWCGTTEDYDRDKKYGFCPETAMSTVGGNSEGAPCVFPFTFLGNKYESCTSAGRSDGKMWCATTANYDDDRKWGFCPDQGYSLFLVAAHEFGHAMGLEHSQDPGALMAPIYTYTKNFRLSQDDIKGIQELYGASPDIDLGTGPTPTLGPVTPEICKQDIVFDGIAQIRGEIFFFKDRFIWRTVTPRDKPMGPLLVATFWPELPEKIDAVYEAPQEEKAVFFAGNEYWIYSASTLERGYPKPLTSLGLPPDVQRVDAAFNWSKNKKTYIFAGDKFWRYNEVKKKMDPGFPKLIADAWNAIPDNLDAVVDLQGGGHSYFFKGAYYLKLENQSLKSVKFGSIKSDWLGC

With `O=c1cc(-c2ccc(O)cc2-c2c(O)cc(O)c3c(=O)cc(-c4ccc(O)cc4)oc23)oc2cc(O)cc(O)c12`, the outcome (in the experiment with Fibroblast [1]; with Fibroblast [3]; in experiment [4]) was inactive. Further, the result in the experiment on Fibroblast [2] and in the experiment with Fibroblast [6] was Active. In addition, the Activity in the experiment on Fibroblast [5] and in the experiment with Fibroblast [7] was 50% in each case.

Take `O=c1cc(-c2ccc(O)c(-c3c(O)cc4oc(-c5ccc(O)cc5)cc(=O)c4c3O)c2)oc2cc(O)cc(O)c12`: the outcome (in the experiment with Fibroblast [1]; in the experiment with Fibroblast [3]; in experiment [4]; with Fibroblast [6]) was inactive.

As for `O=c1cc(-c2ccc(O)c(-c3c(O)cc(O)c4c(=O)cc(-c5ccc(O)cc5)oc34)c2)oc2cc(O)cc(O)c12` [AMENTOFLAVONE], in the experiment on Fibroblast [8], the Activity entry is “Dose-dependent effect” and the 50% inhibitory concentration (IC50) amounted to 1.8 µM. The result in [4] was inactive. The result with Fibroblast [6] was Active.

Regarding `O=c1cc(-c2ccc(O)c(-c3c(O)c(O)c(O)c4c(=O)cc(-c5ccc(O)cc5)oc34)c2)oc2cc(O)cc(O)c12` [SUMAFLAVONE], the outcome in the experiment with Fibroblast [2] and with Fibroblast [6] was Active. For the same molecule, the Activity entry with Fibroblast [8] was “Dose-dependent effect”; in the experiment with Fibroblast [5], 50%; in the experiment on Fibroblast [7], 50%. For the same molecule, in the experiment on Fibroblast [8], 0.78 µM corresponded to half-maximal inhibition (IC50). In addition, in experiment [4], the outcome was inactive.

For the molecule `O=c1cc(-c2ccc(O)c(-c3c(-c4ccc(O)cc4)oc4cc(O)cc(O)c4c3=O)c2)oc2cc(O)cc(O)c12` [TAIWANIAFLAVONE], the outcome (in the experiment with Fibroblast [9]; in experiment [4]; in the experiment on Fibroblast [6]) was inactive. Besides, the result in the experiment on Fibroblast [10] and in the experiment with Fibroblast [12] was Active. Moreover, the Activity in the experiment with Fibroblast [11] and in the experiment with Fibroblast [13] was 50% each time.

In the case of `CC1=C(/C=C/C(C)=C/C=C/C(C)=C/C(=O)O)C(C)(C)CCC1` [TRETINOIN], in the experiment with Fibroblast [8], the IC50 was 10 µM.

As a reminder, the IC50 is the point on the concentration scale where inhibition reaches its midpoint.
